We go through five compounds from US12303509B2, “Compounds for the treatment of BRAF-associated diseases and disorders” (Pfizer Inc., priority 2020, dated 2025).

One may read the IC50 as the concentration that inhibits the measured activity by half. One may read the Papp as a coefficient for how fast a substance crosses the barrier. A higher Papp goes with ready permeation. By efflux ratio is commonly meant a quotient of directional permeabilities that is used to spot active efflux.

The subject of one data set is A375 cells. The data set can be described thus: Cellular phospho-ERK inhibition assay in A375 cells. The class given is cell-based. The conditions noted are these: 2 hours treatment, read-out: A357 cell IC50. In outline: (§1)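 A375 (DMEM) or H1755 (RPMI) cells in 10% FBS treated 2 h at 37 °C with 9-point series, 66 pM–10 μM, 0.25% DMSO. Phospho-ERK1/2 (Thr202/Tyr204) measured by In Cell Western, normalised to GAPDH and to DMSO and 10 μM binimetinib controls; IC50 by 4-parameter fit.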

The test system of data set [1] is LLC-PK1 or MDCKII cell monolayer. The data set can be described thus: MDR1 LLC-PK1 and BCRP MDCKII permeability assay: permeability coefficient (Papp). It counts as in vitro ADME. The conditions noted are these: Papp, test concentration 1 μM, 2 hours incubation. The text has this: (§2) Final organic concentration in the assay was 1%.
In data set [2] the target is full-length FLAG-tagged B-Raf(V600E) (Homo sapiens (Human), UniProt P15056, V600E). The data set can be described thus: BRAF V600E enzyme assay (TR-FRET competitive displacement). The class given is binding. The conditions noted are these: averaged IC50; TR-FRET tracer displacement, 60 min. In short, it runs like this: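 Displacement of 50 nM Tracer 1710 from 5 nM full-length N-terminally FLAG-tagged B-Raf(V600E), detected by TR-FRET with 0.5 nM Eu anti-FLAG antibody, in 25 mM HEPES pH 7.4, 10 mM MgCl2, 2% DMSO; 60 min at ~22 °C. Compounds 11-point, 3-fold from 10 μM; IC50 from 4-parameter fit at 50 POC.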
Sequence of full-length FLAG-tagged B-Raf(V600E) (P15056 whole entry V600E): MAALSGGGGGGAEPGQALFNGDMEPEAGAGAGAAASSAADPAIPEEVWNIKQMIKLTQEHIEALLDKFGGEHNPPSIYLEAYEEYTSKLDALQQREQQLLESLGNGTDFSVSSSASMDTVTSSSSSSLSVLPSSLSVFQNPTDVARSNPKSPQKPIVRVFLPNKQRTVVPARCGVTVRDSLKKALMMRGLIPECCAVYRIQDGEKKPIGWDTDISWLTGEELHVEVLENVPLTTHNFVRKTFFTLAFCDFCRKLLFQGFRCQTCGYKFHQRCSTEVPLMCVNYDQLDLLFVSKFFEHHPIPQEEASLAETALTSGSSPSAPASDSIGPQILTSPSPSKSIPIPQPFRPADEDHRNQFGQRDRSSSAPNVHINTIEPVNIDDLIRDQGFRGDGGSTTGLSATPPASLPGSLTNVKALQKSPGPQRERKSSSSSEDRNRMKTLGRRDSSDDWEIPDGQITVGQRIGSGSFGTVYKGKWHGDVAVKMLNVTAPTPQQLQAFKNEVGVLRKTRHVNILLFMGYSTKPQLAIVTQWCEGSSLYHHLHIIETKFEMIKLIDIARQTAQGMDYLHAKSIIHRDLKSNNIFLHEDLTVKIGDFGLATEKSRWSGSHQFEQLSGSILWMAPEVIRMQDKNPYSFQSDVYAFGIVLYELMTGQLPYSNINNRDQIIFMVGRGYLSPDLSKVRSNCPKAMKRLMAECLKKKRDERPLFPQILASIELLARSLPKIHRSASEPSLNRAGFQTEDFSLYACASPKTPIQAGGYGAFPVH
For orientation: In TR-FRET formats the signal depends on donor and acceptor labels being close together.

The next data set has as its system H1755 cells. The data set can be described thus: Cellular phospho-ERK inhibition assay in H1755 cells. The settings on record: read-out: H1755 Cell IC50. The class given is cell-based. In short, it runs like this:
as §1

The nature of data set [3]: MDR1 LLC-PK1 and BCRP MDCKII permeability assay: permeability coefficient (Papp). The class given is in vitro ADME.
From the text: as §2

The subject of data set [4] is NCI-H1666 (BRAF G466V) cells. The data set can be described thus: Cellular phospho-ERK inhibition assay in NCI-H1666 cells. The class given is cell-based. The settings on record: Homo sapiens, 1 hour treatment, read-out: IC50 NCI-H1666 pERK. As to the method: (§3) The compounds of Example 13, Example 14 and Example 126 were evaluated in a phospho-ERK assay in two mutant BRAF Class III cell lines: NCI-H1666 (BRAF^G466V) and WM3629 cells (BRAF^D594G/NRAS^G12D). NCI-H1666 cells were obtained from the American Type Culture Collection (ATCC, Rockville, MD) and WM3629 cells were obtained from Rockland Immunochemicals (Limerick, PA). Cells were maintained in RPMI growth medium containing 10% FBS.
(§4) Cells were harvested according to standard protocols, counted, and plated onto flat-bottom, 96-well tissue culture plates (Costar #3599) at 2.5×10^4 cells/well in 100 μL/well of growth medium containing 10% FBS. After an overnight incubation at 37° C. with 5% CO2 cells were treated for 1 hour at 37° C., 5% CO2 with inhibitors prepared as a 9-point, 1:3.33 fold dilution series with final compound concentrations ranging from 66 pM-10 μM and a constant DMSO concentration of 0.25%. Control wells contained either 0.25% DMSO alone (uninhibited control) or 10 μM binimetinib (complete inhibition control). The levels of phosphorylated ERK were determined using an In Cell Western protocol: following compound incubation, growth medium was discarded, and cells were fixed with 0.4% formaldehyde in PBS for 20 minutes at room temperature. Cells were permeabilized with 100% methanol for 10 minutes at room temperature. Plates were washed with PBS containing 0.05% Tween-20 and blocked for 1 hour at room temperature with LI-COR Blocking Buffer (LI-COR Biosciences; Cat. #927-40000). Plates were then incubated for 2 hours at room temperature with 50 μL of a 1:400 dilution of anti-phospho-ERK1/2 (Thr202/Tyr204) (Cell Signaling; Cat. #9101) and a 1:1000 dilution of anti-GAPDH (Millipore; Cat. #MAB374) in LI-COR blocking buffer containing 0.05% Tween-20. […] Plates were analyzed by reading on an Odyssey CLx infrared scanner. […]
(§5) [formula] • Where: • Xmax d Average Uninhibited Controls • Xmin Average Complete Inhibition Controls • IC50 values were then calculated using a 4-parameter fit in XLfit software and are shown in Table A2.

Data set [5] deals with BCRP (Homo sapiens (Human), UniProt Q9UNQ0). The data set can be described thus: BCRP MDCKII permeability assay: efflux ratio. The settings on record: dog. It counts as in vitro ADME.
Sequence of BCRP (Homo sapiens (Human), UniProt Q9UNQ0) (Q9UNQ0 whole entry): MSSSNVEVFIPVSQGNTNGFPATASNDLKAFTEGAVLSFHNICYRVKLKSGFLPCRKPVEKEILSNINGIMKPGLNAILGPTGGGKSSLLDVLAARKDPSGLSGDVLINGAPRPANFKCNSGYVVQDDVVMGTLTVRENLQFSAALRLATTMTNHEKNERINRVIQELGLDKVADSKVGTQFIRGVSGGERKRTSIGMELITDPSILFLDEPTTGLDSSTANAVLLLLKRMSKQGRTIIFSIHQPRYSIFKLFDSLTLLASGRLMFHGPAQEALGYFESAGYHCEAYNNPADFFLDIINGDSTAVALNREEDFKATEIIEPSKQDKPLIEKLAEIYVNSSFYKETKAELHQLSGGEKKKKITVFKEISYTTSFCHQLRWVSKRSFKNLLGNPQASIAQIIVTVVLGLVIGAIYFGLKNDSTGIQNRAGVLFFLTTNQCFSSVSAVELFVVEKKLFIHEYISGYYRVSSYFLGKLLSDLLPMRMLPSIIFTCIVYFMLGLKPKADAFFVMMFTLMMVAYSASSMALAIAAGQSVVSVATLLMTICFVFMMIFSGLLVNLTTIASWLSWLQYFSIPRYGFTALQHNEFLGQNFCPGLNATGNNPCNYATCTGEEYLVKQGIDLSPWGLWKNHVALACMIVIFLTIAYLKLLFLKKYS
The subject of data set [6] is WM3629 cells (BRAF D594G/NRAS G12D). The data set can be described thus: Cellular phospho-ERK inhibition assay in WM3629 cells. The class given is cell-based. The conditions noted are these: 1 hour treatment, read-out: IC50 WM3629 pERK. The procedure:
as §3, §4, §5

Data set [7] shares this test system. The data set can be described thus: Proliferation assay (CellTiter-Glo) in WM3629 cells. It counts as cell-based. The conditions noted are these: 3-5 day incubation. As to the method: (§6) The compounds of Example 13, Example 14 and Example 126 were evaluated in a proliferation assay in two mutant BRAF Class III cell lines: NCI-H1666 (BRAF^G466V) and WM3629 cells (BRAF^D594G/NRAS^G12D). NCI-H1666 cells were obtained from the American Type Culture Collection (ATCC, Rockville, MD) and WM3629 cells were obtained from Rockland Immunochemicals (Limerick, PA). Cells were maintained in RPMI growth medium containing 10% FBS.
(§7) Cells were harvested according to standard protocols, counted, and plated onto flat-bottom, 96-well tissue culture plates (Costar #3599) at 2000-5000 cells/well in 100 μL/well of growth medium containing 10% FBS. Cells were incubated at 37° C. with 5% CO2 overnight then treated with inhibitors prepared as a 9-point, 1:3.33 fold dilution series with final compound concentrations ranging from 66 pM-10 μM and a constant DMSO concentration of 0.25%. Control wells contained 0.25% DMSO alone. After a 3-5 day incubation at 37° C., 5% CO2, cell viability was determined by adding 100 μL CellTiter-Glo® Reagent (Promega) to each well and incubated for 15 minutes at room temperature. “Day 0” controls were determined by performing CellTiter-Glo© assay on DMSO control wells at the time of compound treatment (“Day 0” control=0 POC). Luminescence was measured on a Cytation 5 plate reader (BioTek) and values were converted to POC using the following equation:
(§8) [formula] • Where: • Xmax Average DMSO Controls • Xmin Average “Day 0” DMSO Controls • IC50 values were calculated using a 4-parameter fit in XLfit software and are shown in Table A2.
For orientation: In ATP-based viability assays light output follows the ATP content of the culture.

In the next data set the target is P-gp (MDR1) (Homo sapiens (Human), UniProt P08183). Briefly: MDR1 LLC-PK1 permeability assay: efflux ratio. It counts as in vitro ADME. The settings on record: pig.
Sequence of P-gp (MDR1) (P08183 whole entry, species assumed): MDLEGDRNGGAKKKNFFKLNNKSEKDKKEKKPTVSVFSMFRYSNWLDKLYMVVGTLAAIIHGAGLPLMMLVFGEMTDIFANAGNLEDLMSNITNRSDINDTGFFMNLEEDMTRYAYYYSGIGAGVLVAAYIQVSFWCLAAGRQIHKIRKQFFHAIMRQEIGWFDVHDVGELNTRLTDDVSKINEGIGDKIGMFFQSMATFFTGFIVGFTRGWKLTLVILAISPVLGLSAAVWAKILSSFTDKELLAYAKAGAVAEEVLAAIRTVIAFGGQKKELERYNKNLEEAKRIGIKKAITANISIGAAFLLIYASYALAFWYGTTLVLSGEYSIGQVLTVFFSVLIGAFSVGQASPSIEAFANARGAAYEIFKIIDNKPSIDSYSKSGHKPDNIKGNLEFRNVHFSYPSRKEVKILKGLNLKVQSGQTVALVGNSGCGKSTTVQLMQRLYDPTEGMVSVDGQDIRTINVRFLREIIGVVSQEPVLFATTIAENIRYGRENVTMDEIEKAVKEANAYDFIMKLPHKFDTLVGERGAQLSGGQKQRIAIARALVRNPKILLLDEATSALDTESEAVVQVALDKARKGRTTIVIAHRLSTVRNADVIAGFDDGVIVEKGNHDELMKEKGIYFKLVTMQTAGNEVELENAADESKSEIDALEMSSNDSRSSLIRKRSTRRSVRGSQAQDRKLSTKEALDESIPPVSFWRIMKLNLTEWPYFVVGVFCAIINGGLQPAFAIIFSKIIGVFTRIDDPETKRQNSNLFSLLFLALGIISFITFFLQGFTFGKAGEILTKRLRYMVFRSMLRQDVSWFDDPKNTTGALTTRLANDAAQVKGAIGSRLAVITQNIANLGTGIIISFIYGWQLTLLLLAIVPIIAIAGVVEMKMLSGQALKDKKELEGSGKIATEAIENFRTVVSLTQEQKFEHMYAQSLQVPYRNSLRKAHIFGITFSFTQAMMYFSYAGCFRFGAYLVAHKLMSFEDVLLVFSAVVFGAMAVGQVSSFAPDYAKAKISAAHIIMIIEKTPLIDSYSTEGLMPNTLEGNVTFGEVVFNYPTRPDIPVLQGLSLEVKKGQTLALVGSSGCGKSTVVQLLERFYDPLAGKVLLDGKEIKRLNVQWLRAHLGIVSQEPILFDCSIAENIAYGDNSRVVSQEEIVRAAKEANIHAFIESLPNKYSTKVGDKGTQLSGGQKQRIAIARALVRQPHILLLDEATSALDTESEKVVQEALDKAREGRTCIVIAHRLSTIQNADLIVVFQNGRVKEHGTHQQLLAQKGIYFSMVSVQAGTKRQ
From the text: as §2

Data set [8] concerns NCI-H1666 (BRAF G466V) cells. The data set can be described thus: Proliferation assay (CellTiter-Glo) in NCI-H1666 cells. It counts as cell-based. The conditions noted are these: Homo sapiens, 3-5 day incubation. As to the method:
as §6, §7, §8

For data set [9], the system named is BCRP. The settings on record: reported, Mittapalli et al.; cited from earlier work.

Like-named read-outs stand apart in the source and are kept apart here.

In the case of `CN(C)S(=O)(=O)Nc1ccc(F)c(Oc2ccc3ncn(C)c(=O)c3c2F)c1Cl` [Example 111, N-(2-chloro-4-fluoro-3-((5-fluoro-3-methyl-4-oxo-3,4-dihydroquinazolin-6-yl)oxy)phenyl)-(N,N-dimethyl)-sulfamide], the 50% inhibitory concentration (IC50) in the data set with A375 cells (A375 cells (head prints A357)) was 12 nM; in [2] it was 10 nM; in the data set with H1755 cells (2 hours treatment), 80 nM. Besides, in data set [1], the Permeability is on record as 29 *10^−6 cm/s.

As for `CCN(C)S(=O)(=O)Nc1ccc(F)c(Oc2ccc3ncn(C)c(=O)c3c2F)c1Cl` [Example 112, N-(2-chloro-4-fluoro-3-((5-fluoro-3-methyl-4-oxo-3,4-dihydroquinazolin-6-yl)oxy)phenyl)-(N-ethyl-N-methyl)-sulfamide], the IC50 in the data set on A375 cells (A375 cells (head prints A357)) was 24 nM; in [2] it was 20 nM; in the data set with H1755 cells (2 hours treatment), 105 nM. Further, the Permeability in [1] is 28 *10^−6 cm/s.

`Cn1cnc2ccc(Nc3c(F)ccc(NS(=O)(=O)N4CC(F)C4)c3Cl)c(Cl)c2c1=O` [Example 126, N-(2-chloro-3-((5-chloro-3-methyl-4-oxo-3,4-dihydroquinazolin-6-yl)amino)-4-fluorophenyl)-3-fluoroazetidine-1-sulfonamide]: the IC50 with A375 cells (Homo sapiens, A-375, A375 cells (head prints A357)) is 2 nM; in data set [4] it was 15 nM; in [6], 1.4 nM; in [7], more than 10000 nM; with H1755 cells (Homo sapiens, NCI-H1755, 2 hours treatment), 26 nM; in [8], 390 nM. The Papp at 2 h, 1 µM in data set [3] was 44 ×10⁻⁶ cm/s. The efflux ratio at 2 h, 1 µM at BCRP [5] stood at 4.2; at P-gp (MDR1), 2.1.

For `CC(C)(C)c1nc(-c2cccc(NS(=O)(=O)c3c(F)cccc3F)c2F)c(-c2ccnc(N)n2)s1` [dabrafenib], in the data set with BCRP [9], the BCRP efflux ratio was 21.0.

Regarding `CCCS(=O)(=O)Nc1ccc(F)c(C(=O)c2c[nH]c3ncc(-c4ccc(Cl)cc4)cc23)c1F` [vemurafenib], the BCRP efflux ratio in the data set with BCRP [9] is 495.
